From patent US7135492B2, “1,3-disubstituted-2- thioxo-imidazolidine-4,5-dione derivatives useful in the treatment of atherosclerosis” (Wyeth, priority 2001, dated 2006)

Assays:
[1] = tested on: blood serum HDL cholesterol; test: Determination of serum HDL cholesterol in cholesterol/cholic acid-fed rats; assay type: in vivo; settings: Rattus norvegicus, feed or water, 192 h; male Sprague-Dawley rats, diet supplemented with 0.25% cholic acid and 1.0% cholesterol; 100 mg/kg mixed in diet; eight days; serum HDL-C by FPLC; read-out: HDL Cholesterol Level Increase (%)
Protocol: The ability of the compounds of this invention to increase blood serum HDL levels was established by the following standard experimental procedure for determination of HDL cholesterol:
Male Sprague-Dawley rats weighing 200–225 g were housed two per cage and fed Purina Rodent Chow Special Mix 5001-S supplemented with 0.25% cholic acid and 1.0% cholesterol and water ad libitum for 8 days. Each test substance was administered to a group of six rats fed the same diet with the test diet mixed in as 0.005–0.1% of the total diet. Body weight and food consumption were recorded prior to diet administration and at termination. Typical doses of the test substances are 5–100 mg/kg/day.
At termination, blood was collected from anesthetized rats and the serum was separated by centrifugation. Total serum cholesterol was assayed using the Sigma Diagnostics enzymatic kit for the determination of cholesterol, Procedure No. 352, modified for use with ninety-six well microtiter plates. After reconstitution with water the reagent contained 300 U/I cholesterol oxidase, 100 U/I cholesterol esterase, 1000 U/I horseradish peroxidase, 0.3 mmoles/l 4-aminoantipyrine and 30.0 mmoles/l p-hydroxybenzenesulfonate in a pH 6.5 buffer. In the reaction, cholesterol was oxidized to produce hydrogen peroxide which is used to form a quinoneimine dye. The concentration of dye formed was measured spectrophotometrically by absorbance at 490 nm after incubation at 25° C. for 30 minutes. The concentration of cholesterol was determined for each serum sample relative to a commercial standard from Sigma.
HDL cholesterol concentrations in serum were determined by separation of lipoprotein classes by fast protein liquid chromatography (FPLC) by a modification of the method of Kieft et al., J. Lipid Res., 32 (1991) 859–866. 25 ul of serum was injected onto Superose 12 and Superose 6 (Pharmacia), in series, with a column buffer of 0.05 M Tris (2-amino-2-hydroxymethyl-1,3-propanediol) and 0.15 M sodium chloride at a flow rate of 0.5 ml/min. The eluted sample was mixed on line with Boehringer-Mannheim cholesterol reagent pumped at 0.2 ml/min. The combined eluents were mixed and incubated on line through a knitted coil (Applied Biosciences) maintained at a temperature of 45 C. The eluent was monitored by measuring absorbance at 490 nm and gave a continuous absorbance signal proportional to the cholesterol concentration. The relative concentration of each lipoprotein class was calculated as the percent of total absorbance. HDL cholesterol concentration, in serum, was calculated as the percent of total cholesterol as determined by FPLC multiplied by the total serum cholesterol concentration.
Test compounds were administered at a dose of 100 mg/kg. Each test substance is administered to a group of six rats. The duration of treatment was eight days.

| melting point [°C] | Compound | change in vivo at 100 mg/kg [1] [%] |
| --- | --- | --- |
| 173 to 174 | CCN1C(=O)C(=O)N(c2cc(Cl)ccc2C)C1=S [Example 3, 1-(5-Chloro-2-methylphenyl)-3-ethyl-2-thioxo-4,5-imidazolidinedione] | 19 |
| 152 to 153 | CCN1C(=O)C(=O)N(c2cc(F)ccc2C)C1=S [Example 4, 1-Ethyl-3-(5-fluoro-2-methylphenyl)-2-thioxo-4,5-imidazolidinedione] | 203 |
| 171 to 173 | Cc1ccc(Cl)cc1N1C(=O)C(=O)N(C)C1=S [Example 5, 1-(5-Chloro-2-methylphenyl)-3-methyl-2-thioxo-4,5-imidazolidinedione] | 186 |
| 161 to 162 | CCN1C(=O)C(=O)N(c2ccc(Cl)cc2C)C1=S [Example 8, 1-(4-Chloro-2-methylphenyl)-3-ethyl-2-thioxo-4,5-imidazolidinedione] | 103 |
| 162 to 164 | C#CCN1C(=O)C(=O)N(c2cc(Cl)ccc2C)C1=S [Example 9, 1-(5-Chloro-2-methylphenyl)-3-(2-propynyl)-2-thioxo-4,5-imidazolidinedione] | 114 |

The remaining lines, values behind:

| Compound | melting point [°C] | change in vivo at 100 mg/kg [1] [%] |
| --- | --- | --- |
| CCOC(=O)CON1C(=O)C(=O)N(c2cc(Cl)ccc2C)C1=S [Example 1, Ethyl 2-{[3-(5-chloro-2-methylphenyl)-4,5-dioxo-2-thioxo-1-imidazolidinyl]oxy}acetate] | 157 to 159 | 242 |
| CCOC(=O)CON1C(=O)C(=O)N(c2ccccc2SC)C1=S [Example 2, Ethyl 2-({3-[2-(methylsulfanyl)phenyl]-4,5-dioxo-2-thioxo-1-imidazolidinyl}oxy)acetate] | 112 to 114 | 196 |
| Cc1cccc(C)c1N1C(=O)C(=O)N(C)C1=S [Example 6, 1-(2,6-Dimethylphenyl)-3-methyl-2-thioxo-4,5-imidazolidinedione] | 144 to 146 | 227 |
| CCN1C(=O)C(=O)N(c2ccc(F)cc2)C1=S [Example 7, 1-Ethyl-3-(4-fluorophenyl)-2-thioxo-4,5-imidazolidinedione] | 172 to 174 | 199 |
| CCN1C(=O)C(=O)N(c2c(C)cccc2C)C1=S [Example 10, 1-(2,6-Dimethylphenyl)-3-ethyl-2-thioxo-4,5-imidazolidinedione] | 103 to 105 | 36 |
